The test system of one assay is DOHH2 cells. The assay is described as follows: Cell proliferation assay (MTS), DOHH2 cells, 120 h. In kind it is cell-based. The note with it: Homo sapiens, DOHH-2, 120 h. The method in brief:
(§1)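 RS4;11 and DOHH2 cells at 5000 cells/well in RPMI-1640 with 10% FBS were treated with compound at 1.5–10000 nM final, nine points, at 37 °C, 5% CO2. Exposure was 72 h for RS4;11 and 120 h for DOHH2. MTS was added for 2 h, absorbance read at 490/650 nm, and IC50 calculated.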

The test system of a further assay is RS4;11 cells. The assay is described as follows: Cell proliferation assay (MTS), RS4;11 cells, 72 h. The format is cell-based. Particulars: Homo sapiens, RS4-11, 72 h. The method in brief: as §1

For `CN(C)CC[C@H]1Cc2cc(S(=O)(=O)NC(=O)c3ccc(N4CCN(CC5=C(c6ccc(Cl)cc6)CC(C)(C)CC5)CC4)cc3Oc3cnc4[nH]ccc4c3)cc([N+](=O)[O-])c2N1` [Example 1-18, (R)-2-((1H-pyrrolo[2,3-b]pyridin-5-yl)oxy)-4-(4-((4′-chloro-5,5-dimethyl-3,4,5,6-tetra-hydro-[1,1′-biphenyl]-2-yl)methyl)piperazin-1-yl)-N-((2-(2-(dimethylamino)ethyl)-7-nitroindolin-5-yl)sulfonyl)benzamide], the IC50 (usually the concentration at which inhibition is half-maximal) with DOHH2 cells turned out to be 5 nM; with RS4;11 cells, 18 nM.
For `CC1(C)CCC(CN2CCN(c3ccc(C(=O)NS(=O)(=O)c4cc5c(c([N+](=O)[O-])c4)N[C@H](Cc4ccc(F)cc4)CO5)c(Oc4cnc5[nH]ccc5c4)c3)CC2)=C(c2ccc(Cl)cc2)C1` [Example 2-158, (R)-2-((1H-pyrrolo[2,3-b]pyridin-5-yl)oxy)-4-(4-((4′-chloro-5,5-dimethyl-3,4,5,6-tetra-hydro-[1,1′-biphenyl]-2-yl)methyl)piperazin-1-yl)-N-((3-(4-fluorobenzyl)-5-nitro-3,4-dihydro-2H-benzo[b][1,4]oxazin-7-yl)sulfo-nyl)benzamide], the IC50 was 135 nM with DOHH2 cells and 43 nM with RS4;11 cells.
For the compound `CN1CCN(C[C@H]2COc3cc(S(=O)(=O)NC(=O)c4ccc(N5CCN(CC6=C(c7ccc(Cl)cc7)CC(C)(C)CC6)CC5)cc4Oc4cnc5[nH]ccc5c4)cc([N+](=O)[O-])c3N2)CC1` [Example 2-1, (S)-2-((1H-pyrrolo[2,3-b]pyridin-5-yl)oxy)-4-(4-((4′-chloro-5,5-dimethyl-3,4,5,6-tetrahydro-[1,1′-biphenyl]-2-yl)methyl)piperazin-1-yl)-N-((3-((4-methylpiperazin-1-yl)methyl)-5-nitro-3,4-dihydro-2H-benzo[b][1,4]oxazin-7-yl)sulfonyl)benzamide], the values for the IC50 with DOHH2 cells and in the assay on RS4;11 cells were 6 nM and 1 nM, respectively.
Take `CN(C)C[C@H]1Cc2cc(S(=O)(=O)NC(=O)c3ccc(N4CCN(CC5=C(c6ccc(Cl)cc6)CC(C)(C)CC5)CC4)cc3Oc3cnc4[nH]ccc4c3)cc([N+](=O)[O-])c2N1` [Example 1-10, (R)-2-((1H-pyrrolo[2,3-b]pyridin-5-yl)oxy)-4-(4-((4′-chloro-5,5-dimethyl-3,4,5,6-tetra-hydro-[1,1′-biphenyl]-2-yl)methyl)piperazin-1-yl)-N-((2-((dimethylamino)methyl)-7-nitroindolin-5-yl)sulfonyl)benzamide]: the IC50 is 33 nM in the assay on DOHH2 cells and 16 nM in the assay on RS4;11 cells.
In the case of `CN(C)C[C@@H]1Cc2cc(S(=O)(=O)NC(=O)c3ccc(N4CCN(CC5=C(c6ccc(Cl)cc6)CC(C)(C)CC5)CC4)cc3Oc3cnc4[nH]ccc4c3)cc([N+](=O)[O-])c2N1` [Example 1-5], the figures for the half-inhibitory concentration (IC50) in the assay with DOHH2 cells and in the assay on RS4;11 cells were 211 nM and 51 nM, respectively.
As for `COC(=O)N1CCC(C[C@H]2COc3cc(S(=O)(=O)NC(=O)c4ccc(N5CCN(CC6=C(c7ccc(Cl)cc7)CC(C)(C)CC6)CC5)cc4Oc4cnc5[nH]ccc5c4)cc([N+](=O)[O-])c3N2)CC1` [Example 2-195, methyl (S)-4-((7-(N-(2-((1H-pyrrolo[2,3-b]pyridin-5-yl)oxy)-4-(4-((4′-chloro-5,5-dimethyl-3,4,5,6-tetrahydro-[1,1′-biphenyl]-2-yl)methyl)piperazin-1-yl)benzoyl)sulfamoyl)-5-nitro-3,4-dihydro-2H-benzo[b][1,4]oxazin-3-yl)methyl)piperidine-1-carboxylate], the IC50 in the assay with DOHH2 cells amounted to 138 nM; in the assay on RS4;11 cells, 4 nM.
For `C[C@@H]1CN(CC[C@H]2COc3cc(S(=O)(=O)NC(=O)c4ccc(N5CCN(CC6=C(c7ccc(Cl)cc7)CC(C)(C)CC6)CC5)cc4Oc4cnc5[nH]ccc5c4)cc([N+](=O)[O-])c3N2)CCO1` [Example 2-52, 2-((1H-pyrrolo[2,3-b]pyridin-5-yl)oxy)-4-(4-((4′-chloro-5,5-dimethyl-3,4,5,6-tetrahydro-[1,1′-biphenyl]-2-yl)methyl)piperazin-1-yl)-N-(((S)-3-(2-((R)-2-methylmorpholino)ethyl)-5-nitro-3,4-dihydro-2H-benzo[b][1,4]oxazin-7-yl)sulfonyl)benzamide], in that order: 31 nM and 25 nM.
For `C[C@H]1CN(C[C@H]2COc3cc(S(=O)(=O)NC(=O)c4ccc(N5CCN(CC6=C(c7ccc(Cl)cc7)CC(C)(C)CC6)CC5)cc4Oc4cnc5[nH]ccc5c4)cc([N+](=O)[O-])c3N2)CCO1` [Example 2-31, 2-((1H-pyrrolo[2,3-b]pyridin-5-yl)oxy)-4-(4-((4′-chloro-5,5-dimethyl-3,4,5,6-tetrahydro-[1,1′-biphenyl]-2-yl)methyl)piperazin-1-yl)-N-(((S)-3-(((S)-2-methylmorpholino)meth-yl)-5-nitro-3,4-dihydro-2H-benzo[b][1,4]oxazin-7-yl)sulfonyl)benzamide], the IC50 with DOHH2 cells is 18 nM; in the assay on RS4;11 cells, 7 nM.
On to `CC1(C)CCC(CN2CCN(c3ccc(C(=O)NS(=O)(=O)c4cc5c(c([N+](=O)[O-])c4)N[C@@H](COC4CC4)CO5)c(Oc4cnc5[nH]ccc5c4)c3)CC2)=C(c2ccc(Cl)cc2)C1` [Example 2-241, (S)-2-((1H-pyrrolo[2,3-b]pyridin-5-yl)oxy)-4-(4-((4′-chloro-5,5-dimethyl-3,4,5,6-tetra-hydro-[1,1′-biphenyl]-2-yl)methyl)piperazin-1-yl)-N-((3-(cyclopropoxymethyl)-5-nitro-3,4-dihydro-2H-benzo[b][1,4]oxazin-7-yl)sulfonyl)benzamide], for which the IC50 with DOHH2 cells was found to be 11 nM; in the assay on RS4;11 cells it was 4 nM.
In the case of `CC1(C)CCC(CN2CCN(c3ccc(C(=O)NS(=O)(=O)c4cc5c(c([N+](=O)[O-])c4)N[C@H](CN4CCC(NS(C)(=O)=O)CC4)CO5)c(Oc4cnc5[nH]ccc5c4)c3)CC2)=C(c2ccc(Cl)cc2)C1` [Example 2-151, (R)-2-((1H-pyrrolo[2,3-b]pyridin-5-yl)oxy)-4-(4-((4′-chloro-5,5-dimethyl-3,4,5,6-tetra-hydro-[1,1′-biphenyl]-2-yl)methyl)piperazin-1-yl)-N-((3-((4-(methylsulfonamido)pi-peridin-1-yl)methyl)-5-nitro-3,4-dihydro-2H-benzo[b][1,4]oxazin-7-yl)sulfonyl)benzamide], the concentration for half-maximal inhibition (IC50) amounted to 2 nM with DOHH2 cells and 1 nM with RS4;11 cells.
As to `CCC(=O)N1CCN(C[C@H]2COc3cc(S(=O)(=O)NC(=O)c4ccc(N5CCN(CC6=C(c7ccc(Cl)cc7)CC(C)(C)CC6)CC5)cc4Oc4cnc5[nH]ccc5c4)cc([N+](=O)[O-])c3N2)CC1` [Example 2-97, (S)-2-((1H-pyrrolo[2,3-b]pyridin-5-yl)oxy)-4-(4-((4′-chloro-5,5-dimethyl-3,4,5,6-tetra-hydro-[1,1′-biphenyl]-2-yl)methyl)piperazin-1-yl)-N-((5-nitro-3-((4-propionylpiperazin-1-yl)methyl)-3,4-dihydro-2H-benzo[b] [1,4]oxazin-7-yl)sulfonyl)benzamide], the IC50 in the assay on DOHH2 cells and in the assay on RS4;11 cells was 23 nM in each case.

These data come from US11091478B2 (Fochon Pharmaceuticals, Ltd., priority 2017, dated 2021).
